This experiment has as its target T1, human thrombin (Homo sapiens, UniProt P00734).
T1 construct: human thrombin (Sigma, specific activity 3230 UNIH/mg); purchased Sigma
Description: Inhibition of human thrombin activity on human fibrinogen (fibrin formation, 405 nm). Type of experiment: biochemical. The note with it: thrombin 0.7 nM, purified human fibrinogen, pre-incubation 20° C. 10 minutes, pH 7.4; read-out: IC50 (concentration of the compounds that inhibits 50% of the enzymatic activity of the thrombin). As to the method:
For in vitro evaluation of the inhibitory activity of the products of the invention on human thrombin (Sigma, specific activity 3230 UNIH/mg), purified human fibrinogen ([…], Stago) (Fg) was added to a given amount of thrombin (0.7 nM) that had previously been incubated with or without the inhibitor to be tested (20° C., 10 minutes).
Inhibitors, enzymes and substrates are diluted in the same buffer ([…] phosphate buffer, pH 7.4, containing 0.12 M sodium chloride and 0.05% bovine serum albumin) and then distributed on a polystyrene microtitre plate in a volume of 50 μl.
The fibrin formed by the thrombin is measured using a spectrophotometer at 405 nm after from 10 to 15 minutes' reaction at 20° C.
The table below gives in nM the concentration of the compounds that inhibits 50% of the enzymatic activity (IC50) of the thrombin compared with the control without product.

Where a name gives a salt, the structure may show the parent alone.

With `O=C(NCc1ccccc1F)C1CCc2cnc(NCC(F)(F)c3cccc[n+]3[O-])c(=O)n21` (racemic) [Example 1, 3-{[2,2-Difluoro-2-(1-oxido-2-pyridyl)ethyl]amino}-N-(2-fluorobenzyl)4-oxo-4,6,7,8-tetrahydropyrrolo[1,2-a]pyrazine-6-carboxamide], the IC50 is 28 nM. Take `O=C(NCc1ccccc1F)[C@@H]1CCc2cnc(NCC(F)(F)c3ccc4ccccc4[n+]3[O-])c(=O)n21` [Example 31, (6S)-3-{[2,2-Difluoro-2-(1-oxido 2-quinolinyl)ethyl]amino}-N-(2-fluorobenzyl)4-oxo-4,6,7,8-tetrahydropyrrolo[1,2-a]pyrazine 6-carboxamide]: the IC50 turned out to be 8.4 nM. For the molecule `O=C(NCc1c(F)ccc(F)c1F)[C@@H]1CCc2cnc(NCC(F)(F)c3cccc[n+]3[O-])c(=O)n21` [Example 21, (6S)-3-{[2,2-Difluoro-2-(1-oxido-2-pyridyl)ethyl]amino}-N-(2,3,6-trifluorobenzyl)-4-oxo-4,6,7,8-tetrahydropyrrolo[1,2-a]pyrazine-6-carboxamide], the IC50 was 11 nM. Consider `O=C(NCc1cccs1)[C@@H]1CCc2cnc(NCC(F)(F)c3cccc[n+]3[O-])c(=O)n21` [Example 24, (6S)-3-{[2,2-Difluoro-2-(1-oxido-2-pyridyl)ethyl]amino}-N-(2-thienylmethyl)-4-oxo-4,6,7,8-tetrahydropyrrolo[1,2-a]pyrazine-6-carboxamide hydrochloride], for which the IC50 stood at 60 nM. In the case of `O=C(NCc1ccccc1Cl)C1CCc2cnc(NCC(F)(F)c3cccc[n+]3[O-])c(=O)n21` (racemic) [Example 8, 3-{[2,2-Difluoro-2-(1-oxido-2-pyridyl)ethyl]amino}-N-(2-chlorobenzyl)-4-oxo-4,6,7,8-tetrahydropyrrolo[1,2-a]pyrazine-6-carboxamide], the IC50 is 38 nM. On to `O=C(NCc1ccccc1F)[C@@H]1CCc2cnc(NCC(F)(F)c3cccc[n+]3[O-])c(=O)n21` [Example 3, (6S)-3-{[2,2-Difluoro-2-(1-oxido-2-pyridyl)ethyl]amino}-N-(2-fluorobenzyl)-4-oxo-4,6,7,8-tetrahydropyrrolo[1,2-a]pyrazine-6-carboxamide], for which the IC50 was found to be 16 nM.

For the molecule `O=C(COc1ccccc1CNC(=O)C1CCc2cnc(NCC(F)(F)c3cccc[n+]3[O-])c(=O)n21)NCCc1ccccn1` (stereo not shown) [Example 15, 3-{[2,2-Difluoro-2-(1-oxido-2-pyridyl)ethyl]amino}4-oxo-N-[2-(2-oxo-2-{[2-(2-pyridyl)ethyl]amino}ethoxy)benzyl]-4,6,7,8-tetrahydropyrrolo[1,2-a]pyrazine-6-carboxamide hydrochloride], the IC50 was determined as 1.4 nM.

Source of the values: patent US7498330B2, “4-oxo-4,6,7,8-tetrahydro-pyrrolo[1,2-a]pyrazine-6-carboxamide compounds” (Les Laboratories Servier, priority 2004, dated 2009).
